# According to ChEMBL document CHEMBL1201862, “PubChem BioAssay data set” (2004):
# Where “and” joins values, the source holds several entries; their conditions need not be identical. Equal values may be shown once.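 How tested: cells in 96-well plates exposed to compound for 48 hours at five concentrations. GI50 marks 50% less growth.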 Calls of active or inactive are those of the source. Cut-off read from the data, not from the text of the source: active = GI50 up to about 1.1 µM and inactive = higher.
# Key:
# Assay in all cases: inhibition of tumour cell growth, NCI panel, 48 h
# [1] = test system: A549
# [2] = test system: CCRF-CEM
# [3] = test system: HCC 2998
# [4] = test system: IGROV-1
# [5] = test system: MDA-MB-231
# [6] = test system: NCI-H226
# [7] = test system: NCI-H23
# [8] = test system: NCI/ADR-RES
# [9] = test system: OVCAR-4
# [10] = test system: OVCAR-8
# [11] = test system: PC-3
# [12] = test system: RPMI-8226
# [13] = test system: SF-268
# [14] = test system: SK-OV-3
# [15] = test system: SR
# [16] = test system: T47D
# [17] = test system: U-251
# [18] = test system: BT-549
# [19] = test system: NCI-H522
SMILES,GI50 [1],GI50 [2],GI50 [3],GI50 [4],GI50 [5],GI50 [6],GI50 [7],GI50 [8],GI50 [9],GI50 [10],GI50 [11],GI50 [12],GI50 [13],GI50 [14],GI50 [15],GI50 [16],GI50 [17],GI50 [18],GI50 [19]
O=C(/C=C/c1ccsc1)c1ccc(Cl)cc1,> 100 µM (inactive),21.9 µM (inactive),> 100 µM (inactive),> 100 µM (inactive),63.7 µM (inactive),52 µM (inactive),35.3 µM (inactive),78.3 µM (inactive),> 100 µM (inactive),64.7 µM (inactive),70.8 µM (inactive),21 µM (inactive),79.4 µM (inactive),> 100 µM (inactive),18.7 µM (inactive),74.8 µM (inactive),66.4 µM (inactive),,
CC(C)CC[C@H](O)[C@@H](C)[C@H]1[C@@H](OC2OC(C)C(O)C(O)C2O)C[C@H]2[C@@H]3CC=C4C[C@@H](O)CC[C@]4(C)[C@H]3[C@@H](O)C[C@]12C (stereo partly drawn),,0.25 µM (active),> 100 µM (inactive),4.42 µM (inactive),,,8.49 µM (inactive),> 92.9 µM (inactive),,> 100 µM (inactive),,0.0631 µM (active),1.58 µM (inactive),> 100 µM (inactive),0.143 µM (active),,0.0562 µM (active),0.491 µM (active),3.69 µM (inactive)
Oc1nc(S)nc2nc3c4cccnc4c4ccccc4c3nc12,> 100 µM (inactive),74.6 µM (inactive),> 100 µM (inactive),> 100 µM (inactive),,,> 100 µM (inactive),,> 100 µM (inactive),> 100 µM (inactive),> 100 µM (inactive),45.8 µM (inactive),> 100 µM (inactive),> 100 µM (inactive),50.4 µM (inactive),,> 100 µM (inactive),> 100 µM (inactive),86.3 µM (inactive)
O=c1[nH]c(=O)n(C2OC(CO)C(O)C2O)c2ccsc12 (stereo not drawn),> 100 µM (inactive),> 100 µM (inactive),> 100 µM (inactive),> 100 µM (inactive),> 100 µM (inactive),> 100 µM (inactive),> 100 µM (inactive),> 100 µM (inactive),> 100 µM (inactive),> 10 µM (inactive),> 100 µM (inactive),> 100 µM (inactive),> 100 µM (inactive),,> 100 µM (inactive),,> 100 µM (inactive),> 100 µM (inactive),> 100 µM (inactive)
Cc1ccc(-n2cc(-c3ccc(Cl)cc3)c(C#N)c2N)cc1,17.4 µM (inactive),15.5 µM (inactive),14.9 µM (inactive),15.9 µM (inactive),14.7 µM (inactive),12.8 µM (inactive),15.7 µM (inactive),17.3 µM (inactive),14.3 µM (inactive),15.9 µM (inactive),12.6 µM (inactive),,18.7 µM (inactive),20.7 µM (inactive),6.67 µM (inactive),,14.2 µM (inactive),18.2 µM (inactive),12.1 µM (inactive)
CCOC(=O)c1c(SCCO)n(-c2ccccc2)c(=S)n(-c2ccccc2)c1=O,> 100 µM (inactive),> 100 µM (inactive),,> 100 µM (inactive),,> 100 µM (inactive),> 100 µM (inactive),> 100 µM (inactive),> 100 µM (inactive),> 100 µM (inactive),> 100 µM (inactive),> 100 µM (inactive),> 100 µM (inactive),> 100 µM (inactive),> 100 µM (inactive),> 100 µM (inactive),> 100 µM (inactive),> 100 µM (inactive),> 100 µM (inactive)
CCOC(=O)C(NC(=O)CC(C)C)(Nc1ccc(C(F)(F)F)cc1)C(F)(F)F (stereo not drawn),> 100 µM (inactive),35.6 µM (inactive),32.8 µM (inactive),22.2 µM (inactive),,> 100 µM (inactive),76.4 µM (inactive),22.6 µM (inactive),35.4 µM (inactive),27.1 µM (inactive),20 µM (inactive),16.7 µM (inactive),> 100 µM (inactive),> 100 µM (inactive),23.4 µM (inactive),18.4 µM (inactive),28 µM (inactive),,16.7 µM (inactive)
Cc1cc(C)c(N)c(CO)c1,42.8 µM (inactive) and 73.6 µM (inactive),> 100 µM (inactive),74.5 µM (inactive) and 71.1 µM (inactive),,> 100 µM (inactive),,> 100 µM (inactive),> 100 µM (inactive),78.9 µM (inactive) and 57.4 µM (inactive),> 100 µM (inactive),> 100 µM (inactive),> 100 µM (inactive),> 100 µM (inactive),> 100 µM (inactive),> 100 µM (inactive),,61.1 µM (inactive) and 56.1 µM (inactive),> 100 µM (inactive),
